Results reported in patent US12358960B2, “Selective targeting of ubiquitin- and ubiquitin-like E1-activating enzymes by structurally-stabilized peptides” (Dana-Farber Cancer Institute, Inc., priority 2019, dated 2025).
“Also recorded” adds a separate entry of the source. Bridge positions count the residues as written; N and C are the ends. Square brackets hold non-standard residues; d marks the D form. Peptide text beside a SMILES is read from it. R8 = C=CCCCCCC[C@@](C)(N)C(=O)O; S5 = C=CCCC[C@](C)(N)C(=O)O; Nle = CCCC[C@H](N)C(=O)O

Target: T1, Human E1 activating enzyme UBA1 (Homo sapiens, UniProt P22314)
T1 sequence (P22314 1-1058): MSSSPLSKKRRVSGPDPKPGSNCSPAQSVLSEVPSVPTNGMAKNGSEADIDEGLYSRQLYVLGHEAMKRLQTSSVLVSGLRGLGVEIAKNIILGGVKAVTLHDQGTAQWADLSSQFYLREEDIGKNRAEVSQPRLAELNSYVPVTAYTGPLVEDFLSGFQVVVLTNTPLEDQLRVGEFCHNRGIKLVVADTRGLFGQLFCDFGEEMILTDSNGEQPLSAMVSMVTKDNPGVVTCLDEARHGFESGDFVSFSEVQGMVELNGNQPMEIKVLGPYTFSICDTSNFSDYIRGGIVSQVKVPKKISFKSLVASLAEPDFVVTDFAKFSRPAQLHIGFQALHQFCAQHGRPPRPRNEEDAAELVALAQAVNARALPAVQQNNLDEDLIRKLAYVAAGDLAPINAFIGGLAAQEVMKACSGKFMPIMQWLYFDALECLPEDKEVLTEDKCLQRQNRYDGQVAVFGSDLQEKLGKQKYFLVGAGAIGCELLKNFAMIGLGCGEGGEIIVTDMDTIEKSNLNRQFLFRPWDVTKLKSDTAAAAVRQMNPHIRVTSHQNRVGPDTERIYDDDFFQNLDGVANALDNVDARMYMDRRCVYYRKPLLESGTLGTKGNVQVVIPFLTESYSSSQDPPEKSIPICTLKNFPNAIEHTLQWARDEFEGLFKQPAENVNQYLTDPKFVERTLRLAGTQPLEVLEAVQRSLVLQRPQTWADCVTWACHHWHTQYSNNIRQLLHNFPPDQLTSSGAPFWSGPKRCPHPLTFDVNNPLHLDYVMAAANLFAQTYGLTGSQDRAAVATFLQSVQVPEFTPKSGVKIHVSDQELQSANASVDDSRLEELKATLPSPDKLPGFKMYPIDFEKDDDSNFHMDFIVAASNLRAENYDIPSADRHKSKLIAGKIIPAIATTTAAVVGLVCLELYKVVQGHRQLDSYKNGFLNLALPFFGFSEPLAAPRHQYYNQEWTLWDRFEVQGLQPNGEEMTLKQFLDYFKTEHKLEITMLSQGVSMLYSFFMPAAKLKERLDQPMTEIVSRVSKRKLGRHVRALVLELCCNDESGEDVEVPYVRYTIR
Assay: In vitro enzyme inhibition assay: E1-mediated ubiquitin thioester transfer to E2 (band shift, silver stain)
Assay type: biochemical
Conditions: for effect of nonionic detergent on inhibitory activity against UBA1: 0.01% Triton X-100 in assay buffer
Description: In vitro Enzyme Inhibition Assays: To assess an E2 hA peptide's inhibition of an E1 enzyme, an in vitro enzyme inhibition assay can be used, for example. The in vitro enzyme inhibition assay measures an E2 hA peptide's ability to inhibit conjugation of ubiquitin to E2 by E1. Briefly, recombinant E1 (e.g., UBA1), recombinant E2 (e.g., UBE2A), ubiquitin, and Mg-ATP are combined in the presence of an E2 hA peptide or vehicle control (e.g., 1% DMSO) for a period of time (e.g., 30 minutes) at room temperature in a buffer containing, e.g., 50 mM NaCl, 50 mM HEPES pH 7.5. Control reaction includes no E1. Reactions are quenched by addition of SDS-containing loading dye and samples are resolved on a gel (e.g., a 4-12% Bis-Tris protein gel) under nonreducing conditions. Proteins on the gel are visualized via, e.g., silver stain. Conjugation of ubiquitin to E2 by E1 is monitored by conversion of free E2 (˜17 kDa) to E2˜ubiquitin conjugate (˜26 kDa).
Control reaction included no E1 enzyme. Reactions were quenched by addition of SDS-containing loading dye and samples were resolved on a 4-12% Bis-Tris protein gel under nonreducing conditions. Proteins were visualized via silver stain. Conjugation of ubiquitin to E2 by E1 was monitored by conversion of free E2 (17 kDa) to E2˜ubiquitin conjugate (26 kDa).
The ability of the peptides to inhibit E1-mediated thioester transfer to E2 was evaluated. Human E1 activating enzyme UBA1 (10 nM), UbcH5b E2 enzyme (150 nM), ubiquitin (1 μM), and Mg-ATP (20 μM) were combined in the presence of stapled peptide at a range of concentrations or vehicle control (1% DMSO) for 45 minutes at room temperature in buffer containing 50 mM NaCl, 50 mM HEPES, 1 mM TCEP pH 7.5. Reactions were quenched by addition of SDS-containing loading dye and samples were resolved on a 4-12% Bis-Tris protein gel under nonreducing conditions. Proteins were visualized via silver stain. Conjugation of ubiquitin to E2 by E1 was monitored by conversion of free E2 (17 kDa) to E2˜ubiquitin conjugate (26 kDa). Inhibition percentage was calculated from densitometry of silver stain images.
Streptavidin-biotin pull-down assays: For recombinant protein pull-downs, 10 pmol recombinant human UBA1 was incubated with 5 nmol C-terminally biotinylated SAH-UBE2A or DMSO vehicle control in a total volume of 1 mL binding buffer (50 mM NaCl, 20 mM HEPES, pH 7.4, 5 mM DTT) for 1.5 hours at 4° C. 30 μL of pre-equilibrated streptavidin agarose beads were then added and incubated for an additional 1.5 hours at 4° C. The beads were pelleted by centrifugation and washed three times with NP-40 buffer (20 mM HEPES, pH 7.4, 50 mM NaCl, 5 mM DTT, 0.5% [v/v] NP-40) before eluting the protein sample from the beads by heating at 70° C. for 10 min in 3×SDS loading buffer. Samples were subjected to electrophoresis and silver staining (Pierce 24612). For pull-down from cellular lysates, 0.75 mg HeLa cell lysate was incubated with 5 nmol C-terminally biotinylated SAH-UBE2A or DMSO vehicle control in a total volume of 1 mL binding buffer (50 mM NaCl, 20 mM HEPES, pH 7.4, 5 mM DTT) containing protease-phosphatase inhibitor cocktail for 2 hours at 4° C. 30 μL of pre-equilibrated streptavidin agarose beads (ThermoFisher 20357) were then added and incubated for an additional 1.5 hours at 4° C. The beads were pelleted by centrifugation and washed three times with NP-40 buffer (20 mM HEPES, pH 7.4, 50 mM NaCl, 5 mM DTT, 0.5% [v/v] NP-40) before eluting the protein sample from the beads by heating at 70° C. for 10 min in 3×SDS loading buffer. Proteins were separated by SDS-PAGE gel electrophoresis and detected by western blot against UBE1 (Abcam ab34711). In vitro Enzyme Inhibition Assays: Recombinant human E1 activating enzyme UBA1 (10 nM), E2 enzyme (150 nM), ubiquitin (1 μM), and Mg-ATP (20 μM) are combined in the presence of peptide or vehicle control (1% DMSO) for 45 minutes at room temperature in buffer containing 50 mM NaCl, 50 mM HEPES pH 7.5. Control reaction includes no E1 enzyme. […]

What does the source list for `CCCC[C@H](NC(C)=O)C(=O)N[C@@H](CO)C(=O)N[C@H](C(=O)N1CCC[C@H]1C(=O)N[C@]1(C)CCCCCCC=CCCC[C@@](C)(C(=O)N[C@@H](Cc2ccccc2)C(=O)N[C@@H](CCCCN)C(=O)N[C@@H](CCCNC(=N)N)C(=O)N[C@@H](CC(C)C)C(=O)N[C@@H](CCC(N)=O)C(N)=O)NC(=O)[C@H](CCCNC(=N)N)NC(=O)[C@H](CCCC)NC(=O)[C@H](CC(C)C)NC(=O)[C@H](CCCNC(=N)N)NC(=O)[C@H](CCCNC(=N)N)NC(=O)[C@H](CCCNC(=N)N)NC1=O)[C@@H](C)O` [SAH-UBE2A-11, BSTPX1RRRLBRX2FKRLQ] (Ac-[Nle]STP[R8]RRRL[Nle]R[S5]FKRLQ-NH2; staple 5-12)?
effect of nonionic detergent on inhibitory activity against UBA1: not affected at all by the presence of non-ionic detergent; effect of nonionic detergent on inhibitory activity against UBA1 (listed as SAH-UBE2A): no effect on the inhibitory activity of SAH-UBE2A; inhibition of E1-mediated thioester transfer to a variety of human E2 enzymes (panel of human E2 enzymes (UBE2A, UBE2B, UBE2C, UBE2D1-4 etc.)): inhibited E1-mediated thioester transfer to all human E2 enzymes tested; also recorded: inhibits E1 thioester transfer activity; inhibition of E1-mediated thioester transfer to E2, dose response (range of peptide concentrations, UbcH5b E2 enzyme, 45 minutes): inhibited E1-mediated thioester transfer to E2 in a dose-dependent manner; also recorded: most potent activity; also recorded: dose-dependently inhibit E1-mediated thioester transfer to E2
